Like-named read-outs stand apart in the source and are kept apart here.
Tests used:
[1] = target: human Farnesoid X receptor ligand-binding domain/Gal4 DNA binding domain chimera (Homo sapiens (Human), UniProt Q96RI1); experiment: Cell-based assay of FXR activation (FXR-UAS-bla HEK 293T beta-lactamase reporter); details: cellular FXR beta-lactamase reporter assay; for Emax: HEK-293T, extent of activation relative to GW4064, read-out: % Efficacy; for EC50: FXR-UAS-bla HEK 293T cells, 16 h, pEC50 = -log EC50
How it was run: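 Readout is cleavage of the CCF4 FRET substrate (409 nm excitation, blue 447 nm signal) by beta-lactamase, expressed under UAS control after a Gal4–human FXR LBD chimera is activated in HEK 293T cells. Compounds were added as 3-fold dilutions for 16 h at 37 °C in 2% charcoal-stripped FBS medium. Curves were fit to a 3-parameter logistic equation to give pEC50, with % activation relative to GW4064.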

[2] = target: ligand binding domain of human FXR (Homo sapiens (Human), UniProt Q96RI1); experiment: FXR ligand binding assay (LanthaScreen TR-FRET, SRC2-2 peptide recruitment); details: for Emax: read-out: % Efficacy
[3] = -log EC50, concentration required to produce 50% activation
[4] = extent of activation relative to GW4064

ligand binding domain of human FXR, sequence (Q96RI1 262-486): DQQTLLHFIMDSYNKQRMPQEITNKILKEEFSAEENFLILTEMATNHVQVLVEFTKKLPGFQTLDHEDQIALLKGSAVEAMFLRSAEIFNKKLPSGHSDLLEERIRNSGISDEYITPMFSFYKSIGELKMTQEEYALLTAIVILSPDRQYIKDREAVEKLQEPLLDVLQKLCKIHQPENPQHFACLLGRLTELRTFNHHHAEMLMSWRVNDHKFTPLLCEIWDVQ
human Farnesoid X receptor ligand-binding domain/Gal4 DNA binding domain chimera, sequence (Q96RI1 262-486, change not shown): as the sequence (Q96RI1 262-486) above
human Farnesoid X receptor ligand-binding domain/Gal4 DNA binding domain chimera, sequence (P04386 1-147 partner): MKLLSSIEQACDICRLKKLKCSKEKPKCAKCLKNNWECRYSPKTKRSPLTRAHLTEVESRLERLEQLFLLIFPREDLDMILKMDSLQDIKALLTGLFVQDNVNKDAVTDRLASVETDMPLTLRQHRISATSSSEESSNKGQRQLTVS

## O=C(O[C@@H]1C[C@@H]2C[C@H]1CN2c1ccc(-c2nn[nH]n2)cc1)c1c(-c2c(Cl)cccc2Cl)noc1C1CC1 [Compound I-50, (1S,4S,5R)-2-[4-(2H-1,2,3,4-tetrazol-5-yl)phenyl]-2-azabicyclo[2.2.1]heptan-5-yl 5-cyclopropyl-3-(2,6-dichlorophenyl)-1,2-oxazole-4-carboxylate]
[1]
  Emax: 109%
  EC50: 15.8 nM
[2]; [3]
  pEC50: 6.8
[2]; [4]
  Emax: 184%

## O=C(O[C@@H]1C[C@@H]2C[C@H]1CN2c1ccc(-c2nn[nH]n2)cc1F)c1c(-c2c(Cl)cccc2Cl)noc1C1CC1 [Compound I-51, (1S,4S,5R)-2-[2-fluoro-4-(2H-1,2,3,4-tetrazol-5-yl)phenyl]-2-azabicyclo[2.2.1]heptan-5-yl 5-cyclopropyl-3-(2,6-dichlorophenyl)-1,2-oxazole-4-carboxylate]
[1]
  Emax: 104%
  EC50: 20 nM
[2]; [3]
  pEC50: 6.7
[2]; [4]
  Emax: 269%

## O=C(O)c1ccc(N2C[C@@H]3C[C@H]2C[C@H]3OCc2c(-c3c(Cl)cccc3Cl)noc2C2CC2)cc1 [Compound I-52, 4-[(1S,4S,5R)-5-[[5-cyclopropyl-3-(2,6-dichlorophenyl)-1,2-oxazol-4-yl]methoxy]-2-azabicyclo[2.2.1]heptan-2-yl]benzoic acid]
[1]
  Emax: 111%
  EC50: 1 nM
[2]; [3]
  pEC50: 8.8
[2]; [4]
  Emax: 148%

## O=C(O)c1ccc(N2C[C@@H]3C[C@H]2C[C@H]3OCc2c(-c3c(Cl)cccc3Cl)noc2C2CC2)c(F)c1 [Compound I-53, 4-[(1S,4S,5R)-5-[[5-cyclopropyl-3-(2,6-dichlorophenyl)-1,2-oxazol-4-yl]methoxy]-2-azabicyclo[2.2.1]heptan-2-yl]-3-fluorobenzoic acid]
[1]
  Emax: 113%
  EC50: 0.398 nM
[2]; [3]
  pEC50: 8.7
[2]; [4]
  Emax: 145%

## O=C(O)c1cc(F)c(N2C[C@@H]3C[C@H]2C[C@H]3OCc2c(-c3c(Cl)cccc3Cl)noc2C2CC2)c(F)c1 [Compound I-54, 4-[(1S,4S,5R)-5-{[5-cyclopropyl-3-(2,6-dichlorophenyl)-1,2-oxazol-4-yl]methoxy}-2-azabicyclo[2.2.1]heptan-2-yl]-3,5-difluorobenzoic Acid]
[1]
  Emax: 101%
  EC50: 0.316 nM
[2]; [3]
  EC50: 1.58 nM
[2]; [4]
  Emax: 158%

## N#Cc1cc(F)c(N2C[C@@H]3C[C@H]2C[C@H]3OCc2c(-c3c(Cl)cccc3Cl)noc2C2CC2)c(F)c1 [Compound I-54a, 4-[(1S,4S,5R)-5-[[5-cyclopropyl-3-(2,6-dichlorophenyl)-1,2-oxazol-4-yl]methoxy]-2-azabicyclo[2.2.1]heptan-2-yl]-3,5-difluorobenzonitrile]
[1]
  Emax: 112%
  EC50: 31.6 nM
[2]; [3]
  pEC50: 7.0
[2]; [4]
  Emax: 162%

## O=C(O)c1ccc(N2C[C@@H]3C[C@H]2C[C@H]3OCc2c(-c3c(Cl)cccc3Cl)noc2C2CC2)nc1 [Compound I-55, 6-[(1S,4S,5R)-5-{[5-cyclopropyl-3-(2,6-dichlorophenyl)-1,2-oxazol-4-yl]methoxy}-2-azabicyclo[2.2.1]heptan-2-yl]pyridine-3-carboxylic Acid]
[1]
  Emax: 104%
  EC50: 3.16 nM
[2]; [3]
  pEC50: 7.9
[2]; [4]
  Emax: 121%

## O=C(O)c1ccc(N2C[C@@H]3C[C@H]2C[C@H]3OCc2c(-c3c(Cl)cccc3Cl)noc2C2(F)CC2)cc1 [Compound I-56, 4-[(1S,4S,5R)-5-{[3-(2,6-dichlorophenyl)-5-(1-fluorocyclopropyl)-1,2-oxazol-4-yl]methoxy}-2-azabicyclo[2.2.1]heptan-2-yl]benzoic Acid]
[1]
  Emax: 125%
  EC50: 2 nM
[2]; [3]
  pEC50: 8.5
[2]; [4]
  Emax: 137%

## O=C(O)c1ccc(N2C[C@@H]3C[C@H]2C[C@H]3OCc2c(-c3c(Cl)cccc3Cl)noc2C2(F)CC2)c(F)c1 [Compound I-57, 4-[(1S,4S,5R)-5-{[3-(2,6-dichlorophenyl)-5-(1-fluorocyclopropyl)-1,2-oxazol-4-yl]methoxy}-2-azabicyclo[2.2.1]heptan-2-yl]-3-fluorobenzoic Acid]
[1]
  Emax: 109%
  EC50: 1 nM
[2]; [3]
  pEC50: 7.9
[2]; [4]
  Emax: 146%

## CS(=O)(=O)NC(=O)c1ccc(N2C[C@@H]3C[C@H]2C[C@H]3OCc2c(-c3c(Cl)cccc3Cl)noc2C2CC2)cc1 [Compound I-58, 4-[(1S,4S,5R)-5-{[5-cyclopropyl-3-(2,6-dichlorophenyl)-1,2-oxazol-4-yl]methoxy}-2-azabicyclo[2.2.1]heptan-2-yl]-N-methanesulfonylbenzamide]
[1]
  Emax: 104%
  EC50: 0.501 nM
[2]; [3]
  pEC50: 8.4
[2]; [4]
  Emax: 153%

## CCCS(=O)(=O)NC(=O)c1ccc(N2C[C@@H]3C[C@H]2C[C@H]3OCc2c(-c3c(Cl)cccc3Cl)noc2C2CC2)cc1 [Compound I-59, 4-[(1S,4S,5R)-5-{[5-cyclopropyl-3-(2,6-dichlorophenyl)-1,2-oxazol-4-yl]methoxy}-2-azabicyclo[2.2.1]heptan-2-yl]-N-(propane-1-sulfonyl)benzamide]
[1]
  Emax: 103%
  EC50: 0.1 nM
[2]; [3]
  pEC50: 8.2
[2]; [4]
  Emax: 176%

## O=C(NS(=O)(=O)C1CC1)c1ccc(N2C[C@@H]3C[C@H]2C[C@H]3OCc2c(-c3c(Cl)cccc3Cl)noc2C2CC2)cc1 [Compound I-60, N-(cyclopropanesulfonyl)-4-[(1S,4S,5R)-5-[[5-cyclopropyl-3-(2,6-dichlorophenyl)-1,2-oxazol-4-yl]methoxy]-2-azabicyclo[2.2.1]heptan-2-yl]benzamide]
[1]
  Emax: 105%
  EC50: 0.2 nM
[2]; [3]
  pEC50: 8.2
[2]; [4]
  Emax: 170%

## CCCS(=O)(=O)NC(=O)c1ccc(N2C[C@@H]3C[C@H]2C[C@H]3OCc2c(-c3c(Cl)cccc3Cl)noc2C2CC2)c(F)c1 [Compound I-61, 4-[(1S,4S,5R)-5-{[5-cyclopropyl-3-(2,6-dichlorophenyl)-1,2-oxazol-4-yl]methoxy}-2-azabicyclo[2.2.1]heptan-2-yl]-3-fluoro-N-(propane-1-sulfonyl)benzamide]
[1]
  Emax: 106%
  EC50: 0.0631 nM
[2]; [3]
  pEC50: 8.7
[2]; [4]
  Emax: 174%

## O=C(NS(=O)(=O)C1CC1)c1ccc(N2C[C@@H]3C[C@H]2C[C@H]3OCc2c(-c3c(Cl)cccc3Cl)noc2C2CC2)c(F)c1 [Compound I-62, N-(cyclopropanesulfonyl)-4-[(1S,4S,5R)-5-{[5-cyclopropyl-3-(2,6-dichlorophenyl)-1,2-oxazol-4-yl]methoxy}-2-azabicyclo[2.2.1]heptan-2-yl]-3-fluorobenzamide]
[1]
  Emax: 112%
  EC50: 0.158 nM
[2]; [3]
  pEC50: 7.9
[2]; [4]
  Emax: 188%

## O=C(O)c1cc(F)c2nc(N3C[C@H]4C[C@@H]3[C@H](OC(=O)c3c(-c5c(Cl)cccc5Cl)noc3C3CC3)C4)sc2c1 [Compound I-63, 2-[(1R,4S,6R)-6-[5-cyclopropyl-3-(2,6-dichlorophenyl)-1,2-oxazole-4-carbonyloxy]-2-azabicyclo[2.2.1]heptan-2-yl]-4-fluoro-1,3-benzothiazole-6-carboxylic Acid]
[1]
  EC50: < 31600 nM
[2]; [3]
  pEC50: 8.7
[2]; [4]
  Emax: 13%

## O=C(O)c1cc(F)c2nc(N3C[C@@H]4C[C@H](OC(=O)c5c(-c6c(Cl)cccc6Cl)noc5C5CC5)[C@H]3C4)sc2c1 [Compound I-64, 2-[(1R,4S,6S)-6-[5-cyclopropyl-3-(2,6-dichlorophenyl)-1,2-oxazole-4-carbonyloxy]-2-azabicyclo[2.2.1]heptan-2-yl]-4-fluoro-1,3-benzothiazole-6-carboxylic Acid]
[1]
  Emax: 55%
  EC50: 501 nM
[2]; [3]
  pEC50: >4.5

## O=C(O)c1cc(F)c2nc(N3C[C@H]4C[C@@H]3[C@H](OCc3c(-c5c(Cl)cccc5Cl)noc3C3CC3)C4)sc2c1 [Compound I-65, 2-[(1R,4S,6R)-6-{[5-cyclopropyl-3-(2,6-dichlorophenyl)-1,2-oxazol-4-yl]methoxy}-2-azabicyclo[2.2.1]heptan-2-yl]-4-fluoro-1,3-benzothiazole-6-carboxylic Acid]
[1]
  Emax: 52%
  EC50: 100 nM
[2]; [3]
  pEC50: 6.9
[2]
  Emax: 45%

## N#Cc1cc(N2C[C@@H]3C[C@H]2C[C@H]3OCc2c(-c3c(Cl)cccc3Cl)noc2C2CC2)ccc1C(=O)O [Compound I-101, 2-Cyano-4-[(1S,4S,5R)-5-{[5-cyclopropyl-3-(2,6-dichlorophenyl)-1,2-oxazol-4-yl]methoxy}-2-azabicyclo[2.2.1]heptan-2-yl]benzoic Acid]
[1]
  Emax: 113%
  EC50: 1 nM
[2]; [3]
  pEC50: 9.8
[2]; [4]
  Emax: 137%

## N#Cc1cc(C(=O)O)ccc1N1C[C@@H]2C[C@H]1C[C@H]2OCc1c(-c2c(Cl)cccc2Cl)noc1C1CC1 [Compound I-102, 3-cyano-4-[(1S,4S,5R)-5-{[5-cyclopropyl-3-(2,6-dichlorophenyl)-1,2-oxazol-4-yl]methoxy}-2-azabicyclo[2.2.1]heptan-2-yl]benzoic Acid]
[1]
  Emax: 106%
  EC50: 0.794 nM
[2]; [3]
  pEC50: 8.6
[2]; [4]
  Emax: 112%

## O=C(O)c1ccc(N2C[C@@H]3C[C@H]2C[C@H]3OCc2c(-c3c(Cl)cccc3Cl)noc2C2CC2)cc1F [Compound I-103, 4-[(1S,4S,5R)-5-{[5-cyclopropyl-3-(2,6-dichlorophenyl)-1,2-oxazol-4-yl]methoxy}-2-azabicyclo[2.2.1]heptan-2-yl]-2-fluorobenzoic Acid]
[1]
  Emax: 103%
  EC50: 0.794 nM
[2]; [3]
  pEC50: 8.7
[2]; [4]
  Emax: 135%

## O=C(O)c1c(F)cc(N2C[C@@H]3C[C@H]2C[C@H]3OCc2c(-c3c(Cl)cccc3Cl)noc2C2CC2)cc1F [Compound I-104, 4-[(1S,4S,5R)-5-{[5-cyclopropyl-3-(2,6-dichlorophenyl)-1,2-oxazol-4-yl]methoxy}-2-azabicyclo[2.2.1]heptan-2-yl]-2,6-difluorobenzoic Acid]
[1]
  Emax: 104%
  EC50: 3.16 nM
[2]; [3]
  pEC50: 9.4
[2]; [4]
  Emax: 156%
